Molecular target: Adenosylhomocysteinase (Homo sapiens, UniProt P23526)
Test: Inhibition of human recombinant placental SAH

Chain of Adenosylhomocysteinase (P23526 whole entry): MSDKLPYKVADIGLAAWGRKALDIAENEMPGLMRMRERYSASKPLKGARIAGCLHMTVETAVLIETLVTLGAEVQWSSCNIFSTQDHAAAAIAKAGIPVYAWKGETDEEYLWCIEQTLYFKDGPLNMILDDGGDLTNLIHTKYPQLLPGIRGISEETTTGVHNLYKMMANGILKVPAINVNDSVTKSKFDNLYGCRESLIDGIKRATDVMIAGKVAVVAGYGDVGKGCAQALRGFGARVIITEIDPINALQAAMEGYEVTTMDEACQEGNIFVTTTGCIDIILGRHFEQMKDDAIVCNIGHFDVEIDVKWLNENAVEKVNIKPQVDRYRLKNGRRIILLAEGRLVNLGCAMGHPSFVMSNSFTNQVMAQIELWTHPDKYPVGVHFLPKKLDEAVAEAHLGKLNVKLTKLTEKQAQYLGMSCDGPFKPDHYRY

IC50	Compound
7.53 µM	NC(=O)NC[C@H]1O[C@@H](n2cnc3c(N)ncnc32)[C@H](O)[C@@H]1O
28.9 µM	[N-]=[N+]=NC[C@H]1O[C@@H](n2cnc3c(N)ncnc32)[C@H](O)[C@@H]1O
75 µM	NC[C@H]1O[C@@H](n2cnc3c(N)ncnc32)[C@H](O)[C@@H]1O
